Results reported in PubChem BioAssay (NCI).
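Protocol summary: plate cells (96-well), add compound at 5 concentrations, incubate 48 h, interpolate endpoints linearly. GI50 is the concentration that inhibits growth by half. TGI: total growth inhibition.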

Key:
Experiment in all cases: NCI anticancer screen, dose series, 48 h
786-0 renal = tested on: 786-0 renal
A498 renal = tested on: A498 renal
A549 NSCLC = tested on: A549 NSCLC
ACHN renal = tested on: ACHN renal
BT-549 breast = tested on: BT-549 breast
HCT-15 colon = tested on: HCT-15 colon
KM12 colon = tested on: KM12 colon
LOX IMVI melanoma = tested on: LOX IMVI melanoma
OVCAR-5 ovarian = tested on: OVCAR-5 ovarian
RPMI-8226 leukemia = tested on: RPMI-8226 leukemia
SF-268 CNS = tested on: SF-268 CNS
SF-539 CNS = tested on: SF-539 CNS
SK-MEL-2 melanoma = tested on: SK-MEL-2 melanoma
SK-OV-3 ovarian = tested on: SK-OV-3 ovarian
TK-10 renal = tested on: TK-10 renal
UACC-257 melanoma = tested on: UACC-257 melanoma
UACC-62 melanoma = tested on: UACC-62 melanoma

Row | SMILES | TGI (786-0 renal) [µM] | TGI (A498 renal) [µM] | TGI (A549 NSCLC) [µM] | TGI (ACHN renal) [µM] | TGI (BT-549 breast) [µM] | TGI (HCT-15 colon) [µM] | TGI (KM12 colon) [µM] | TGI (LOX IMVI melanoma) [µM] | TGI (OVCAR-5 ovarian) [µM] | TGI (RPMI-8226 leukemia) [µM] | TGI (SF-268 CNS) [µM] | TGI (SF-539 CNS) [µM] | TGI (SK-MEL-2 melanoma) [µM] | TGI (SK-OV-3 ovarian) [µM] | TGI (TK-10 renal) [µM] | TGI (UACC-257 melanoma) [µM] | TGI (UACC-62 melanoma) [µM] | GI50 (RPMI-8226 leukemia) [µM] | GI50 (UACC-257 melanoma) [µM]
1 | COC(=O)[C@@H]1C[C@H]([Se]c2ccccc2)CN1C(=O)OCc1ccccc1 | > 100 | > 100 | > 100 | > 100 | 60.7 | > 100 | > 100 | 26.5 | > 100 | 71.8 | > 100 | > 100 | 42.2 | > 100 | > 100 | > 100 | 35.8 | – | –
2 | CC1OC(OC2C(O)COC(OC3C(C)OC(OC4C(OC(=O)[C@]56CCC(C)(C)C[C@@H]5C5=CCC7[C@@]8(C)C[C@H](O)[C@H](OC9OC(CO)C(O)C(OC%10OC(CO)C(O)C(O)C%10O)C9O)[C@@](C)(CO)[C@@H]8CC[C@@]7(C)[C@]5(C)CC6)OCC(O)C4O)C(O)C3O)C2O)C(O)C(O)C1O (stereo partly drawn) | 30 | 26 | 28.6 | 34.5 | 40.7 | 38.7 | 55.2 | 35 | 27 | 51.8 | 39.7 | 34.4 | 36 | 30.3 | 34.2 | 35.6 | 39.8 | – | –
3 | COc1cc2c(cc1O)[C@@H]1Cc3c(cc(OC)c(OC)c3Oc3cc4c(cc3OC)CCN(C)[C@@H]4Cc3ccc(O)cc3)[C@H](C2)N1C | > 100 | 80.4 | > 100 | > 100 | 96.9 | > 100 | > 100 | 37.7 | > 100 | > 79.6 | > 100 | 65.2 | 53.3 | > 100 | > 100 | 44.6 | > 100 | – | –
4 | OC1CN2Cc3cc4c(cc3[C@]13C=C[C@@H](O)CC23)OCO4 (stereo partly drawn) | > 100 | > 100 | > 100 | > 100 | > 100 | > 100 | > 100 | > 100 | > 100 | > 100 | > 100 | > 100 | > 100 | > 100 | 93.3 | 34.9 | > 100 | – | –
5 | S=c1sc2nc(Cl)nc(Cl)c2s1 | 12.9 | 32 | 42.4 | 26.9 | 24 | 30.7 | 20.8 | 30.3 | 29.5 | 9.67 | 34.4 | 41.6 | 23.8 | 31.6 | 26.5 | 31.9 | 27.1 | – | –
6 | COc1cc2cc(C(=O)N3CC(CCl)c4ccccc43)[nH]c2c(OC)c1OC (stereo not drawn) | > 100 | > 100 | > 100 | > 100 | > 100 | > 100 | > 100 | > 100 | > 100 | > 100 | > 100 | > 100 | > 100 | > 100 | > 100 | > 100 | > 100 | – | –
7 | O=[N+]([O-])/C(C(Cl)=C(Cl)Cl)=C(/Sc1ccccc1)N1CCCCC1 | > 100 | > 100 | > 100 | > 100 | > 100 | > 100 | > 100 | > 100 | > 100 | > 100 | > 100 | > 100 | > 100 | > 100 | > 100 | 99.1 | > 100 | – | –
8 | Cc1cc(NS(=O)(=O)c2ccc(Nc3c4ccccc4nc4ccc(C(=O)Nc5ccc(S(N)(=O)=O)cc5)cc34)cc2)no1 | > 100 | > 100 | > 100 | > 100 | > 100 | > 100 | > 100 | > 100 | > 100 | > 100 | > 100 | > 100 | > 100 | > 100 | > 100 | > 100 | > 100 | – | –
9 | C=C1C(=O)O[C@H]2[C@H]1CC(=O)/C(C)=C/CC[C@@]1(C)O[C@@H]21 | 1.53 | 3.6 | 27.9 | 1.44 | 2 | 1.56 | 7.09 | 1.47 | 6.87 | 1.92 | 13.4 | 4.6 | 8.47 | 25.9 | 2.65 | 5.57 | 2.76 | 0.308 | 2
10 | CC(C)NCCC(O)c1cc2ccccc2o1 (stereo not drawn) | > 100 | > 100 | > 100 | > 100 | > 100 | > 100 | > 100 | > 100 | > 100 | > 100 | > 100 | > 100 | > 100 | > 100 | > 100 | > 100 | > 100 | – | –
11 | CN(C)C(=O)Oc1ccc(-c2cn3cc(NC(=O)c4ccccc4)ccc3n2)cc1 | > 100 | > 100 | > 100 | > 100 | > 100 | > 100 | > 100 | > 100 | > 100 | > 100 | > 100 | > 100 | > 100 | > 100 | > 100 | > 100 | > 100 | – | –
12 | C=CC[C@@]1(C)CCCCCCCCC[C@@](C)(CC=C)C1=O | > 100 | 36.4 | > 100 | > 100 | 62.3 | > 100 | 94.5 | 33.6 | > 100 | 66.7 | > 100 | > 100 | 37.9 | > 100 | > 100 | 58.6 | 67.5 | – | –
13 | NC(N)=NCCCC(NC(=O)OCCCCCCn1ccc(N)nc1=O)C(=O)O (stereo not drawn) | > 100 | > 100 | > 100 | > 100 | > 100 | > 100 | > 100 | > 100 | > 100 | > 100 | > 100 | > 100 | > 100 | > 100 | > 100 | > 100 | > 100 | – | –
14 | COc1cc2c(cc1OC)C(N)CC2=O (stereo not drawn) | > 100 | > 100 | > 100 | > 100 | > 100 | > 100 | > 100 | > 100 | > 100 | > 100 | > 100 | > 100 | > 100 | > 100 | > 100 | > 100 | > 100 | – | –
15 | COc1cc(/C=C/c2cc(/C=C/c3ccc(O)c(OC)c3)oc(=O)c2)ccc1O | 34.9 | 13.6 | > 100 | 15.4 | 12.2 | > 34.4 | 18 | 15.7 | > 100 | > 20.5 | > 39.7 | > 100 | > 65.9 | > 65.2 | > 30 | > 29.6 | 18.5 | – | –
16 | NC(=Nc1ccc(O)cc1)S(=O)O | > 100 | > 100 | > 100 | > 100 | > 100 | > 100 | > 100 | > 100 | > 100 | > 100 | > 100 | > 100 | > 100 | > 100 | > 100 | > 100 | > 100 | – | –
17 | C=C1CN(Cc2ccccc2)[C@@H]2CCCCC[C@H](C#N)[C@H]12 | > 100 | > 100 | > 100 | > 100 | > 100 | > 100 | > 100 | > 100 | > 100 | > 80.1 | > 100 | > 100 | > 100 | > 100 | > 100 | > 100 | > 100 | – | –
18 | COc1ccc(Cc2nccc3cc(OC)c(OC)cc23)cc1OC | > 100 | > 100 | > 100 | > 100 | > 100 | > 100 | > 100 | > 100 | > 100 | > 100 | > 100 | > 100 | > 100 | > 100 | > 100 | > 100 | > 100 | – | –
19 | O=C(NC(Nc1ccc(F)c(Cl)c1)(C(F)(F)F)C(F)(F)F)OCc1ccccc1 | 39.5 | > 100 | > 100 | > 100 | 33.6 | 94.5 | > 100 | > 100 | > 100 | 61.4 | > 100 | 42.6 | > 100 | 74.1 | > 100 | > 100 | > 100 | – | –
20 | COc1cc2c(cc1OCc1ccccc1)NC(=S)[C@@H]1CCCN1C2=S | > 100 | > 100 | > 100 | > 100 | > 100 | > 100 | > 100 | > 100 | > 100 | > 100 | > 100 | > 100 | > 100 | > 100 | > 100 | > 100 | > 100 | – | –
21 | NC(Cc1ccccc1)(C(=O)O)C(=O)O | > 100 | > 100 | > 100 | > 100 | > 100 | > 100 | > 100 | > 100 | > 100 | > 100 | > 100 | > 100 | > 100 | > 100 | > 100 | > 100 | > 100 | – | –
22 | N#CCCN(CCN(C(=O)Nc1ccccc1)c1ccccc1)C(=O)Nc1ccccc1 | > 100 | > 100 | > 100 | > 100 | > 100 | > 100 | > 100 | > 100 | > 100 | > 69.2 | > 100 | > 100 | > 100 | > 100 | > 100 | > 100 | > 100 | – | –
23 | NC(=O)c1[nH]cnc1/N=N/SCC(N)C(=O)O (stereo not drawn) | > 100 | > 100 | > 100 | > 100 | > 100 | > 100 | > 62.5 | > 100 | > 100 | > 100 | > 100 | > 100 | > 100 | > 100 | > 100 | > 100 | > 100 | – | –
